Data on 2 compounds can be found in ChEMBL document CHEMBL1240295, “Specificity and mechanism of action of some commonly used protein kinase inhibitors” (Biochem J, 2000).

Molecules are shown by their SMILES.

The species entered for test [1] is Homo sapiens. Put plainly: Inhibition of His-tagged human CAMK2 expressed in Escherichia coli at 10 uM.
Test [2] has as its target Myosin light chain kinase, smooth muscle (Gallus gallus) (UniProt P11799). As to the kind of experiment: Inhibition of chicken SmMLCK expressed in Escherichia coli at 10 uM. The conditions noted are these: Ovis aries.
The nature of test [3]: Inhibition of His-tagged human CAMK2 expressed in Escherichia coli.
The species named for test [4] is Oryctolagus cuniculus. The following applies: at 10 µM.
Description: Inhibition of rabbit MKK1 expressed in Escherichia coli at 10 uM
The target of test [5] is Mitogen-activated protein kinase 1 (Homo sapiens) (UniProt P28482). The following applies: at 10 µM.
Description: Inhibition of Gst-tagged human MAPK2/ERK2 expressed in Escherichia coli at 10 uM
For test [6], the target named is Mitogen-activated protein kinase 8 (Homo sapiens) (UniProt P45983). The following applies: at 10 µM.
Description: Inhibition of Gst-tagged human JNK1a1 expressed in Escherichia coli at 10 uM
In test [7] the target is Mitogen-activated protein kinase 11 (Homo sapiens) (UniProt Q15759). The following applies: at 10 µM.
Description: Inhibition of Gst-tagged human SAPK2b/p38--beta-2 expressed in Escherichia coli at 10 uM
In test [8] the target is T1, Mitogen-activated protein kinase 13 (Homo sapiens) (UniProt O15264).
T1 sequence (whole entry): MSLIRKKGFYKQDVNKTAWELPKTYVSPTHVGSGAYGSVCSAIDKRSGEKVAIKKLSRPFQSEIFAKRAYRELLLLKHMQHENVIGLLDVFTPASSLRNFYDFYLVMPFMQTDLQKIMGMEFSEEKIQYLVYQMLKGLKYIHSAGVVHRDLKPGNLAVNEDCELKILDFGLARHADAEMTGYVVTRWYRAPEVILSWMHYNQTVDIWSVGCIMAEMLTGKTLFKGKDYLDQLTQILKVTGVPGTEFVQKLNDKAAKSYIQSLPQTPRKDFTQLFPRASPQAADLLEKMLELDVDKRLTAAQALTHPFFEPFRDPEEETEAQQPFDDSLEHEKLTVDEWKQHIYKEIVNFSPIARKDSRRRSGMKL
The conditions noted are these: at 10 µM.
Description: Inhibition of Gst-tagged human SAPK4/p38delta expressed in Escherichia coli at 10 uM

For test [9], the species on record is Oryctolagus cuniculus. The following applies: Muscle tissue, at 10 µM.
Description: Inhibition of MAPKAPK1b from rabbit skeletal muscle at 10 uM
The target in test [10] is T2, MAP kinase-activated protein kinase 2 (Homo sapiens, UniProt P49137). The following applies: at 10 µM.
Description: Inhibition of Gst-tagged human MAPKAPK2 expressed in Escherichia coli at 10 uM
Test [11] has as its target T3, Ribosomal protein S6 kinase alpha-5 (Homo sapiens, UniProt O75582). The following applies: Sf9, at 10 µM.
Description: Inhibition of His-tagged human MSK1 expressed in Sf9 cells at 10 uM
Test [12] has as its target T4, MAP kinase-activated protein kinase 5 (Homo sapiens) (UniProt Q8IW41).
T4 sequence (whole entry): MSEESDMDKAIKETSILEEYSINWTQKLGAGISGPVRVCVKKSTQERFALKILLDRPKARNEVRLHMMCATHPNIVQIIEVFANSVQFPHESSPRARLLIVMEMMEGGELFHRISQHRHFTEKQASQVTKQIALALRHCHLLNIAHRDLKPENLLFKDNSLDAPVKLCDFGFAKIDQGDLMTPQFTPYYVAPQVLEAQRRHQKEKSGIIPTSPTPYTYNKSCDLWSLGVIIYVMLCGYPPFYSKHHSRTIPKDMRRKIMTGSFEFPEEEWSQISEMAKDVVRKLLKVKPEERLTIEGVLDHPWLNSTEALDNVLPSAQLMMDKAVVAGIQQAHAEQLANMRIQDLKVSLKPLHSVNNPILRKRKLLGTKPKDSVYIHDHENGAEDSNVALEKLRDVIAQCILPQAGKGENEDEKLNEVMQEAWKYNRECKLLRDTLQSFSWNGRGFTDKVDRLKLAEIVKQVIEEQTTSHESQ
The following applies: Sf9, at 10 µM.
Description: Inhibition of His-tagged human PRAK expressed in Sf9 cells at 10 uM

For test [13], the species on record is Bos taurus. The following applies: at 10 µM.
Description: Inhibition of bovine heart PKA at 10 uM
For test [14], the target named is 3-phosphoinositide-dependent protein kinase 1 (Homo sapiens) (UniProt O15530). The following applies: Sf21, at 10 µM.
Test [15] has as its target RAC-alpha serine/threonine-protein kinase (Homo sapiens) (UniProt P31749). The conditions noted are these: Sf9, at 10 µM.
Description: Inhibition of human PKBalpha expressed in SF9 cells at 10 uM
For test [16], the target named is T5, Serine/threonine-protein kinase Sgk1 (Homo sapiens) (UniProt O00141).
T5 sequence (whole entry): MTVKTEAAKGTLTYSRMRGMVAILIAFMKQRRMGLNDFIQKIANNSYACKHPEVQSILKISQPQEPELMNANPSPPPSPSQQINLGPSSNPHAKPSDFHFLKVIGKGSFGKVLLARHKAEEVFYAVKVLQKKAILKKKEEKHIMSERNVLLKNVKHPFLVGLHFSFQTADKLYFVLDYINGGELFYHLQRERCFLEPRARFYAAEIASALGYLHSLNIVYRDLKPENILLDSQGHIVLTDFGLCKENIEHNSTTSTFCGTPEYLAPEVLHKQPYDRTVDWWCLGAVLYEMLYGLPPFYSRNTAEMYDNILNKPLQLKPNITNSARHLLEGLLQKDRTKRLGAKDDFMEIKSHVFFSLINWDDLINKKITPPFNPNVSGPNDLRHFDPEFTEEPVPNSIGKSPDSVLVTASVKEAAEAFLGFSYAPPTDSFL
The following applies: Sf9, at 10 µM.
Description: Inhibition of His-tagged human SGK expressed in Sf9 cells at 10 uM

Test [17] has as its target T6, Ribosomal protein S6 kinase beta-1 (Homo sapiens, UniProt P23443). The conditions noted are these: at 10 µM.
Description: Inhibition of His-tagged human S6K1 expressed in Escherichia coli at 10 uM
Test [18] addresses T7, Glycogen synthase kinase-3 beta (Homo sapiens, UniProt P49841). The conditions noted are these: Sf21, at 10 µM.
Description: Inhibition of His-tagged human GSK3b expressed in Sf21 cells at 10 uM
Test [19] deals with Rho-associated protein kinase 2 (Rattus norvegicus) (UniProt Q62868). The conditions noted are these: Sf9, at 10 µM.
Description: Inhibition of rat ROCK2 expressed in Sf9 cells at 10 uM
Test [20] is filed under the species Rattus norvegicus. The following applies: at 10 µM.
Description: Inhibition of rat liver AMPK at 10 uM
The target of test [21] is T8, Casein kinase II (Homo sapiens) (UniProt P67870+P68400+P19784). The conditions noted are these: Sf9, at 10 µM.
Description: Inhibition of His-tagged human CK2 expressed in Sf9 cells at 10 uM
The species entered for test [22] is Oryctolagus cuniculus. The conditions noted are these: Muscle tissue, at 10 µM. This is another data set of the same source.
Description: Inhibition of PHK from rabbit skeletal muscle at 10 uM
The target of test [23] is Tyrosine-protein kinase Lck (Homo sapiens) (UniProt P06239). The conditions noted are these: Sf9, at 10 µM.
Description: Inhibition of His-tagged human LCK expressed in Sf9 cells at 10 uM
Test [24] has as its target T9, Serine/threonine-protein kinase Chk1 (Homo sapiens) (UniProt O14757).
T9 sequence (whole entry): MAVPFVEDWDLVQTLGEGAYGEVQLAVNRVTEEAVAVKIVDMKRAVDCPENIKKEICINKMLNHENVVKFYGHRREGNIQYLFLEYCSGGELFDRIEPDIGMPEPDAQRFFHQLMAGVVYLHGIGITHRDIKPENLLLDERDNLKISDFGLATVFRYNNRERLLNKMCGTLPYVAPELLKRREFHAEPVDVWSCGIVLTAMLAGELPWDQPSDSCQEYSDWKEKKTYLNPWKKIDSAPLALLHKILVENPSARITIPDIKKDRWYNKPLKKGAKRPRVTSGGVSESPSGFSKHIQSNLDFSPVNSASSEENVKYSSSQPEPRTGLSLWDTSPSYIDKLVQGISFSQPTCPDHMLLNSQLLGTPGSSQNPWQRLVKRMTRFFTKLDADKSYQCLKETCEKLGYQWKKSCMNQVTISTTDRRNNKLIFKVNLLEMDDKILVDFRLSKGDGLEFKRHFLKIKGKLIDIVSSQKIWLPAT
The conditions noted are these: at 10 µM.
Description: Inhibition of His-tagged human CHK1 expressed in Escherichia coli at 10 uM

The target of test [25] is [Pyruvate dehydrogenase (acetyl-transferring)] kinase isozyme 1, mitochondrial (Homo sapiens) (UniProt Q15118). Put plainly: Inhibition of His-tagged human PDK1 expressed in Sf21 cells at 50 uM. The conditions noted are these: values are per cent of control.
Test [26] deals with Rho-associated protein kinase 2 (Rattus norvegicus) (UniProt Q62868). As to the kind of experiment: Inhibition of rat ROCK2 expressed in Sf9 cells at 50 uM. The conditions noted are these: values are per cent of control.
For test [27], the target named is Casein kinase II (Homo sapiens, UniProt P19784+P67870+P68400). As to the kind of experiment: Inhibition of His-tagged human CK2 expressed in Sf9 cells.
In test [28] the target is Phosphatidylinositol 4,5-bisphosphate 3-kinase catalytic subunit alpha isoform (Bos taurus) (UniProt P32871). The conditions noted are these: Sf9, 50 uM.
Description: Inhibition of His-tagged bovine PI3K expressed in Sf9 cells at 50 uM
The species entered for test [29] is Rattus norvegicus. As to the kind of experiment: Inhibition of rat liver AMPK at 50 uM; values are per cent of control.
Test [30] is filed under the species Bos taurus. Put plainly: Inhibition of bovine heart PKA at 50 uM; values are per cent of control.
The species entered for test [31] is Oryctolagus cuniculus. As to the kind of experiment: Inhibition of PHK from rabbit skeletal muscle at 50 uM; values are per cent of control. The following applies: Muscle tissue.
The species named for test [32] is Oryctolagus cuniculus. Put plainly: Inhibition of MAPKAPK1b from rabbit skeletal muscle at 50 uM; values are per cent of control. The following applies: Muscle tissue.
Test [33] deals with RAC-alpha serine/threonine-protein kinase (Homo sapiens) (UniProt P31749). As to the kind of experiment: Inhibition of human PKBalpha expressed in SF9 cells at 50 uM; values are per cent of control.
Test [34] is filed under the species Oryctolagus cuniculus. As to the kind of experiment: Inhibition of rabbit MKK1 expressed in Escherichia coli at 50 uM; values are per cent of control.
Test [35] concerns the target T5, Serine/threonine-protein kinase Sgk1 (Homo sapiens). As to the kind of experiment: Inhibition of His-tagged human SGK expressed in Sf9 cells at 50 uM; values are per cent of control.
For test [36], the target named is T8, Casein kinase II (Homo sapiens). As to the kind of experiment: Inhibition of His-tagged human CK2 expressed in Sf9 cells at 50 uM; values are per cent of control.
Test [37] concerns the target T3, Ribosomal protein S6 kinase alpha-5. Put plainly: Inhibition of His-tagged human MSK1 expressed in Sf9 cells at 50 uM; values are per cent of control.
Test [38] has as its target T4, MAP kinase-activated protein kinase 5 (Homo sapiens). Put plainly: Inhibition of His-tagged human PRAK expressed in Sf9 cells at 50 uM; values are per cent of control.
Test [39] concerns the target T7, Glycogen synthase kinase-3 beta. Put plainly: Inhibition of His-tagged human GSK3b expressed in Sf21 cells at 50 uM; values are per cent of control.
Test [40] addresses T6, Ribosomal protein S6 kinase beta-1. As to the kind of experiment: Inhibition of His-tagged human S6K1 expressed in Escherichia coli at 50 uM; values are per cent of control.
The target of test [41] is T9, Serine/threonine-protein kinase Chk1 (Homo sapiens). As to the kind of experiment: Inhibition of His-tagged human CHK1 expressed in Escherichia coli at 50 uM; values are per cent of control.
Test [42] addresses T2, MAP kinase-activated protein kinase 2. Put plainly: Inhibition of His-tagged human MAPKAPK2 expressed in Escherichia coli at 50 uM; values are per cent of control.
Test [43] deals with Protein kinase C alpha type (Homo sapiens, UniProt P17252). As to the kind of experiment: Inhibition of His-tagged human PKCalpha expressed in Escherichia coli at 50 uM; values are per cent of control.
In test [44] the target is Mitogen-activated protein kinase 1 (Homo sapiens) (UniProt P28482). Put plainly: Inhibition of His-tagged human MAPK2/ERK2 expressed in Escherichia coli at 50 uM; values are per cent of control.
Test [45] deals with Mitogen-activated protein kinase 11 (Homo sapiens) (UniProt Q15759). As to the kind of experiment: Inhibition of His-tagged human SAPK2b/p38b2 expressed in Escherichia coli at 50 uM; values are per cent of control.
In test [46] the target is Mitogen-activated protein kinase 8 (Homo sapiens) (UniProt P45983). Put plainly: Inhibition of His-tagged human JNK1a1/SAPK1c expressed in Escherichia coli at 50 uM; values are per cent of control.
In test [47] the target is T1, Mitogen-activated protein kinase 13 (Homo sapiens). As to the kind of experiment: Inhibition of His-tagged human SAPK4/p38delta expressed in Escherichia coli at 50 uM; values are per cent of control.

Sequence of Mitogen-activated protein kinase 8 (Homo sapiens) (P45983 whole entry): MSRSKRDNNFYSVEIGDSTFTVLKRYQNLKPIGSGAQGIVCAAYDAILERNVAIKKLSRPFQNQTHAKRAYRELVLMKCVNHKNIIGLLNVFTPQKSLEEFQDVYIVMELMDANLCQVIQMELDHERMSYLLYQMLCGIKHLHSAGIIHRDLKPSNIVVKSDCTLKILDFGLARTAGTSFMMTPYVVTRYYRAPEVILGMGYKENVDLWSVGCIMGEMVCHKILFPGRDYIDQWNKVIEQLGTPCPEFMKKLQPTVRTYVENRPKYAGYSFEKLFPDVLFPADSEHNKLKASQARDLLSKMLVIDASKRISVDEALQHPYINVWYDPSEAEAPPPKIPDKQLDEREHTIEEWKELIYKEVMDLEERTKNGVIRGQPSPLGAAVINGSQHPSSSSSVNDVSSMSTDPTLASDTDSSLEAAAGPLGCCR
Sequence of Mitogen-activated protein kinase 11 (Homo sapiens) (Q15759 whole entry): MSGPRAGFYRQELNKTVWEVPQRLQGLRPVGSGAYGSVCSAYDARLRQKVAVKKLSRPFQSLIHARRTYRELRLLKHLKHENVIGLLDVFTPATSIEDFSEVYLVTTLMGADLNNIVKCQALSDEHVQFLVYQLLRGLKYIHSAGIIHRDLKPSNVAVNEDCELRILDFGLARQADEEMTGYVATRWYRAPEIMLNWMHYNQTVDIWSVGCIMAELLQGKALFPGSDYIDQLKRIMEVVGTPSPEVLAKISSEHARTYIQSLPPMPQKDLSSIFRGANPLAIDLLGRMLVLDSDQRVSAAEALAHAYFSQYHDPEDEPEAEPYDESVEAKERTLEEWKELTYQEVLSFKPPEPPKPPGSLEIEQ
T2 sequence (P49137 whole entry, looked up): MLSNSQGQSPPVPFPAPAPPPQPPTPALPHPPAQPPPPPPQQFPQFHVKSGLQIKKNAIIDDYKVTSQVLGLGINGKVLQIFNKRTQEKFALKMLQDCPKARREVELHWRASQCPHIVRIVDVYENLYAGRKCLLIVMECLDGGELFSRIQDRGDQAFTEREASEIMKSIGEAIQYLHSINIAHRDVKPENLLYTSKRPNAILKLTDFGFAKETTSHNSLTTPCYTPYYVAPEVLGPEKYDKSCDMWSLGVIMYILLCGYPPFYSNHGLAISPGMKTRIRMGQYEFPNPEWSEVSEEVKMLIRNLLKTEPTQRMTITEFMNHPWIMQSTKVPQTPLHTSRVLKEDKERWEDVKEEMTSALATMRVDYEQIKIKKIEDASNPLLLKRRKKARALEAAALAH
T6 sequence (P23443 whole entry, looked up): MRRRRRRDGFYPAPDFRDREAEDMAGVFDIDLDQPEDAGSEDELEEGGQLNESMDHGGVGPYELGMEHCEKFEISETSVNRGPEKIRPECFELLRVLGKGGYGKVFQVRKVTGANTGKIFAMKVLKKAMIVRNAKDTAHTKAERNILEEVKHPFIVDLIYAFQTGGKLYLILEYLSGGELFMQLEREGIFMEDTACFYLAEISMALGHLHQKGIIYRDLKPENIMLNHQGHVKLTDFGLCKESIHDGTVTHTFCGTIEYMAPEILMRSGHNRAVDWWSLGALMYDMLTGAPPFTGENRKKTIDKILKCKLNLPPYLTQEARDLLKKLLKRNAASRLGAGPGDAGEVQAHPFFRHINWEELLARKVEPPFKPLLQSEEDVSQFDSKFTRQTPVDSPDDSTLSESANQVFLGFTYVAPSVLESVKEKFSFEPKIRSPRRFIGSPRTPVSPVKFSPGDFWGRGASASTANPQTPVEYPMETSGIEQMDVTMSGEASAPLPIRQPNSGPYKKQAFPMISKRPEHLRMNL
T7 sequence (P49841 whole entry, looked up): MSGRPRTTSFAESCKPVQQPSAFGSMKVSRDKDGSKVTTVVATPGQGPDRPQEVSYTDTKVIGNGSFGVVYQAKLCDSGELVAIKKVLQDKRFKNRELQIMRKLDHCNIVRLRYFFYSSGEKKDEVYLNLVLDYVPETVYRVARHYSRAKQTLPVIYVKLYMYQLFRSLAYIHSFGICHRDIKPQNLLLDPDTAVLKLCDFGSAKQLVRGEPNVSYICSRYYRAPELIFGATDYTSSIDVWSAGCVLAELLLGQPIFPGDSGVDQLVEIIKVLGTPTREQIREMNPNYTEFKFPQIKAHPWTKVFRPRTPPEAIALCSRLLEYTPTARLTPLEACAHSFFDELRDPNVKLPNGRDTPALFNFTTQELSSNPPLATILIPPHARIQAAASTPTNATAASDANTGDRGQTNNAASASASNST
Sequence of Rho-associated protein kinase 2 (Rattus norvegicus) (Q62868 whole entry, looked up): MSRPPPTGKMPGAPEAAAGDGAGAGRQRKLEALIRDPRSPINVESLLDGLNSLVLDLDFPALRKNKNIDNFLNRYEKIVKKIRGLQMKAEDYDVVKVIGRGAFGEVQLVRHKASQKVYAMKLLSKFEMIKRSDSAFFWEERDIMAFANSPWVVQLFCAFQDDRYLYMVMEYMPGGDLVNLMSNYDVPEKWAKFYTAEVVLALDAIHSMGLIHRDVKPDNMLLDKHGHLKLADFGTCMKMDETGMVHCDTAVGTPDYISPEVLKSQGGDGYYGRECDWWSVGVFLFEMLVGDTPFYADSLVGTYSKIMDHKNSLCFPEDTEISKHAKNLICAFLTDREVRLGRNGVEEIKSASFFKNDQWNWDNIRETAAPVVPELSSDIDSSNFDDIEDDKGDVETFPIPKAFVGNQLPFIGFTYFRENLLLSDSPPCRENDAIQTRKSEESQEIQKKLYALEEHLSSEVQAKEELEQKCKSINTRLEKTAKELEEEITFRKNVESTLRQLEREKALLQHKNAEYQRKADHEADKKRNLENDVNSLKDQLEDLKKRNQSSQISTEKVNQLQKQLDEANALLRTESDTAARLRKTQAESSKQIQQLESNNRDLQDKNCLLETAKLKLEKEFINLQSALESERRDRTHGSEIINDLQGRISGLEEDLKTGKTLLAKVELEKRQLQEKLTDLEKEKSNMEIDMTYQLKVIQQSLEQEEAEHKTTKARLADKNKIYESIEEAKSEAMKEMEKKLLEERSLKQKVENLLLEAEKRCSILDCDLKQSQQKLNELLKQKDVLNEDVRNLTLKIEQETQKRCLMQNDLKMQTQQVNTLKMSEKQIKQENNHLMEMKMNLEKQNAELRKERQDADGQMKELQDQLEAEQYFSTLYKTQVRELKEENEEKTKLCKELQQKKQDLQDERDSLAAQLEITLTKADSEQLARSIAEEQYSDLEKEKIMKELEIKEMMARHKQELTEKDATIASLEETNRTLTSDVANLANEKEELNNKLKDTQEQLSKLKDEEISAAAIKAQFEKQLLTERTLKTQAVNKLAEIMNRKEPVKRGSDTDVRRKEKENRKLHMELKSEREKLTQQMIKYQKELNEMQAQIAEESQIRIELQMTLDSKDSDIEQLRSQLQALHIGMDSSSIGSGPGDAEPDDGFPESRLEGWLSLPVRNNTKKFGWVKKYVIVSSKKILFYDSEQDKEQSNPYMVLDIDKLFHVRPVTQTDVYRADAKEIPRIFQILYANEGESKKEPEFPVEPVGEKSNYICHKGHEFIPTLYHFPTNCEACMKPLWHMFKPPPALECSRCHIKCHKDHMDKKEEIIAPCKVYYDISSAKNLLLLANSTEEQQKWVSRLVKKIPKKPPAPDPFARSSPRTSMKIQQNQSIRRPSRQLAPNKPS
Sequence of Mitogen-activated protein kinase 1 (Homo sapiens) (P28482 whole entry): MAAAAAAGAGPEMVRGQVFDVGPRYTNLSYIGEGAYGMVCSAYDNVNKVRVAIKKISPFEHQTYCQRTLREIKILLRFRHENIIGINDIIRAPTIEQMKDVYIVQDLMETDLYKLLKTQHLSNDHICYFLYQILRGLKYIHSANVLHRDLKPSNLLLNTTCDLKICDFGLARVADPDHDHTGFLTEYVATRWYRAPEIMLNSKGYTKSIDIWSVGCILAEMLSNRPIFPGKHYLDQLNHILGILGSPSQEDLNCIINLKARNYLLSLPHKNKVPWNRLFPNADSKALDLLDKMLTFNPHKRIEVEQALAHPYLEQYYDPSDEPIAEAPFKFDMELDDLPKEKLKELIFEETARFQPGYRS
T3 sequence (O75582 whole entry, looked up): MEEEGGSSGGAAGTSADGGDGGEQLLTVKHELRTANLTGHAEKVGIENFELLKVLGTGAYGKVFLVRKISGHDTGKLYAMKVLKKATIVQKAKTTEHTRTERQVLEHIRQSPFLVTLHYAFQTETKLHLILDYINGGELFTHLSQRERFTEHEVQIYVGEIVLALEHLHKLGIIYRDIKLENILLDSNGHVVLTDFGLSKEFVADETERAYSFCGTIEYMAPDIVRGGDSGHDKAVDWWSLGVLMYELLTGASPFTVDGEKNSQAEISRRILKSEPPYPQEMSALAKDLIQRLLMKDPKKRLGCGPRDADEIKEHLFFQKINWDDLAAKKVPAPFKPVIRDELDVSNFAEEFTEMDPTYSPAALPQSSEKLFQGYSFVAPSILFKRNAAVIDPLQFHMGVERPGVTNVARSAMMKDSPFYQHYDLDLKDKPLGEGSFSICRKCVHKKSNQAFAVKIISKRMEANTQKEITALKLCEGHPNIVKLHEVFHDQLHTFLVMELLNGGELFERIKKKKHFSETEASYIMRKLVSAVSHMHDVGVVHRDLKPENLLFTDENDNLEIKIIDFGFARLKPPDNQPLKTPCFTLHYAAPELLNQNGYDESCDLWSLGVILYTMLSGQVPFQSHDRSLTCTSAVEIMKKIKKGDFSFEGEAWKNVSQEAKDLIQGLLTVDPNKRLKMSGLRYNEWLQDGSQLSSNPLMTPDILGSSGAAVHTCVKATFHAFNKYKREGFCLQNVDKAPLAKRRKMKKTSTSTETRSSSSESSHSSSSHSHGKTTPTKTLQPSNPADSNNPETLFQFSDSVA

For the compound `CN([C@@H](Cc1ccc(OS(=O)(=O)c2cccc3cnccc23)cc1)C(=O)N1CCN(c2ccccc2)CC1)S(=O)(=O)c1cccc2cnccc12`, the inhibition in test [1] was determined as 0%; in test [2], 96%. For the same compound, it took 0.5 µM to reach half-maximal inhibition in test [3] (IC50). For the same compound, the residual activity in test [4] was 101%; in [5] it was 92%; in [6], 104%; in test [7] it was 98%; in test [8] it was 110%; in [10] it was 59%. Besides, the residual activity in test [11] came out at 81%; in test [12], 36%; in test [13] it was 94%; in [14], 70%; in test [15], 67%; in [16], 78%. In addition, the residual activity in test [17] came out at 93%; in test [18], 38%; in test [19] it was 88%; in test [20] it was 97%; in test [21], 103%; in test [23] it was 92%. Also, the residual activity in test [24] was found to be 104%. Further, the level, % of control in test [9] was found to be 89%; in test [22] it was 106%.

Take `O=c1cc(N2CCOCC2)oc2c(-c3ccccc3)cccc12` [LY-294002]: the residual activity stood at 76% in [25]; 104% in [26]; 13% in test [28]; 103% in test [29]; 91% in [30]; 60% in test [33]. For the same compound, the residual activity is 101% in [34]; 72% in test [35]; 18% in [36]; 83% in [37]; 68% in [38]; 53% in test [39]. Moreover, the residual activity was found to be 81% in [40]; 90% in test [41]; 74% in test [42]; 91% in [43]; 114% in test [44]; 98% in test [45]. Also, the values for the residual activity in [46] and in [47] were 108% and 94%, respectively. In test [27], this compound registered an IC50 of 6.9 µM. In addition, the level, % of control was determined as 44% in [31] and 70% in test [32].

Usually inhibition stands for the relative decrease from the control value, in per cent. Low values mean a response near the control, high ones a response far below the control. For orientation: IC50 means the concentration that inhibits the measured activity by half. Lower therefore signals inhibition by little substance.
